Laboratory results reported in PubChem BioAssay AID220 (DTP/NCI, 2004).
Records with an inconclusive call do not appear.

Test system: CD8F1 mice, subcutaneous mammary adenocarcinoma, T/C%
Experiment: NCI In Vivo Anticancer Drug Screen. Data for tumor model Mammary Adenocarcinoma CD8F1 (subcutaneous) in CD8F1
Conditions: higher = larger tumour
Method in brief: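 Transplantable tumors were established in mice, animals were dosed with compound or vehicle, and survival or tumor size was then measured in both groups. The treated result was divided by the control result.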

[1] = endpoint: median tumor weight (est.), dose: 12.5 mg/kg/injection, schedule: Q07DX005 (ip), vehicle: saline
[2] = endpoint: median tumor weight (est.), dose: 25.0 mg/kg/injection, schedule: Q07DX005 (ip), vehicle: saline
[3] = endpoint: median tumor weight change, dose: 62.0 mg/kg/injection, schedule: Q01DX001 (ip), vehicle: saline
[4] = endpoint: median tumor weight change, dose: 125.0 mg/kg/injection, schedule: Q01DX001 (ip), vehicle: saline

CN(N=O)C(N)=O
T/C (endpoint: median tumor weight (est.), dose: 3.12 mg/kg/injection, schedule: Q07DX005 (ip), vehicle: suspension in saline): 156 % of control
T/C [1]: 103 % of control
T/C (endpoint: median tumor weight (est.), dose: 12.5 mg/kg/injection, schedule: Q07DX005 (ip), vehicle: suspension in saline): 104 % of control
T/C [2]: 81 % of control
T/C (endpoint: median tumor weight (est.), dose: 25.0 mg/kg/injection, schedule: Q07DX005 (ip), vehicle: suspension in saline): 100 % of control
T/C (endpoint: median tumor weight (est.), dose: 50.0 mg/kg/injection, schedule: Q07DX005 (ip), vehicle: saline): 39 % of control
T/C (endpoint: median tumor weight (est.), dose: 50.0 mg/kg/injection, schedule: Q07DX005 (ip), vehicle: suspension in saline): 31 % of control
T/C (endpoint: median tumor weight change, dose: 15.62 mg/kg/injection, schedule: Q01DX001 (ip), vehicle: Klucel (hydroxypropylcellulose) (HPC)): 66 % of control
T/C (endpoint: median tumor weight change, dose: 16.0 mg/kg/injection, schedule: Q01DX001 (ip), vehicle: saline): 54 % of control
T/C (endpoint: median tumor weight change, dose: 31.0 mg/kg/injection, schedule: Q01DX001 (ip), vehicle: saline): 29 % of control
T/C (endpoint: median tumor weight change, dose: 31.25 mg/kg/injection, schedule: Q01DX001 (ip), vehicle: Klucel (hydroxypropylcellulose) (HPC)): 67 % of control
T/C (endpoint: median tumor weight change, dose: 31.25 mg/kg/injection, schedule: Q01DX001 (ip), vehicle: suspension in saline): 72 % of control
T/C [3]: 38 % of control
T/C (endpoint: median tumor weight change, dose: 62.5 mg/kg/injection, schedule: Q01DX001 (ip), vehicle: Klucel (hydroxypropylcellulose) (HPC)): 14 % of control
T/C (endpoint: median tumor weight change, dose: 62.5 mg/kg/injection, schedule: Q01DX001 (ip), vehicle: suspension in saline): 57 % of control
T/C [4]: -59 % of control
T/C (endpoint: median tumor weight change, dose: 125.0 mg/kg/injection, schedule: Q01DX001 (ip), vehicle: suspension in saline): -2 % of control

O=C1NCCN1c1ncc([N+](=O)[O-])s1
T/C (endpoint: mean tumor weight, dose: 100.0 mg/kg/injection, schedule: Q07DX005 (ip), vehicle: saline): 121 % of control
T/C (endpoint: mean tumor weight, dose: 200.0 mg/kg/injection, schedule: Q07DX005 (ip), vehicle: saline): 89 % of control
T/C (endpoint: mean tumor weight, dose: 400.0 mg/kg/injection, schedule: Q07DX005 (ip), vehicle: saline): 101 % of control

NNC(=O)c1ccncc1
T/C [3]: 78 % of control
T/C [4]: 70 % of control

COc1cccc2c1C(=O)c1c(O)c3c(c(O)c1C2=O)C[C@@](O)(C(C)=O)C[C@@H]3OC1CC(N(C)C)C(O)C(C)O1 (stereo partly drawn)
T/C (endpoint: mean tumor weight, dose: 1.0 mg/kg/injection, schedule: Q07DX006 (ip), vehicle: water): 197 % of control
T/C (endpoint: mean tumor weight, dose: 2.0 mg/kg/injection, schedule: Q07DX006 (ip), vehicle: water): 73 % of control
T/C (endpoint: mean tumor weight, dose: 4.0 mg/kg/injection, schedule: Q07DX006 (ip), vehicle: water): 30 % of control
T/C (endpoint: mean tumor weight, dose: 8.0 mg/kg/injection, schedule: Q07DX006 (ip), vehicle: water): 1 % of control
T/C (endpoint: median tumor weight (est.), dose: 1.0 mg/kg/injection, schedule: Q07DX005 (ip), vehicle: water): 108 % of control
T/C (endpoint: median tumor weight (est.), dose: 2.0 mg/kg/injection, schedule: Q07DX005 (ip), vehicle: water): 63 % of control
T/C (endpoint: median tumor weight (est.), dose: 4.0 mg/kg/injection, schedule: Q07DX005 (ip), vehicle: water): 45 % of control
T/C (endpoint: median tumor weight (est.), dose: 8.0 mg/kg/injection, schedule: Q07DX005 (ip), vehicle: water): 42 % of control

Cc1ncc(CNC(=O)N(CCCl)N=O)c(N)n1
T/C (endpoint: median tumor weight (est.), dose: 6.25 mg/kg/injection, schedule: Q07DX005 (ip), vehicle: saline): 18 % of control
T/C [1]: 20 % of control
T/C [2]: 14 % of control
